Measured values reported in paper PMC5847048 (Psychopharmacology, 2017).

Key:
[1] = tested on: middle-aged mice (14–15 months old); assay: Contextual serial discrimination (CSD) task; assay type: in vivo, mouse; conditions: for Post hoc analysis of donepezil effect on SCM score for all S 47445 levels (Dunnett, versus vehicle group): all levels of S 47445 pooled
Method: (§1) Treatments were administered per os daily for nine consecutive days for studies involving the CSD and SA tasks. The 8th and the 9th oral administrations were given 60 min before acquisition and test phases in the CSD task, or before the training and the test sessions in the SA task.
The studies were carried out on mice according to the procedure described in full by Celerier et al. ([2004]) and Tronche et al. ([2010]) (Fig.1). Briefly, the mouse learns two consecutive spatial discriminations (D1 and D2) in a four hole-board apparatus (45 × 45 × 30 cm) enclosed with gray Plexiglas walls. The floor of the hole-board was interchangeable (white and rough versus black and smooth). On the floor, four holes opening on a food cup (3-cm diameter × 2.5-cm depth) were located 6 cm away from the sidewalls. Photocells located into the holes allowed an automatic recording of the number of head-dips in each hole.
Fig. 1 a Contextual serial discrimination: at the acquisition phase, mice performed two consecutive spatial discrimination sessions varying by the color and texture of the floor, i.e., D1, discrimination 1, and D2, discrimination 2. For each discrimination session, only one out of the four holes of the apparatus was baited (hashed circles). […] One hour prior to acquisition and test phases, mice received a per os administration of the compounds or vehicle solution in a chamber placed in a room (room C) different from the one in which the behavioral experiments were conducted (room A). Subsequently, mice were submitted to the test phase in which they were repositioned on the floor of the first discrimination without any food pellet in the apparatus. b Two types of responses were calculated: (i) correct responses corresponding to head-dips into the hole baited at the acquisition of the first discrimination (D1), on the same floor context; (ii) interference responses corresponding to head-dips into the hole baited at the other (second) discrimination (D2). Both parameters allow calculation of the SCM score
Mice were partially food-deprived for 1 week prior to experimentation and were maintained on a 12 ± 2% loss of their body weight throughout behavioral testing to increase motivation for food reward. During the food deprivation phase, mice were handled daily to familiarize them with the experimenter.
During the acquisition session, mice were first placed at the center of the board in a plastic tube for 15 s and then learned two successive spatial discriminations (D1 and D2) for 6 min each and were each separated by a 2-min interval. Between two sessions, each mouse was placed in its home cage in an animal housing room. For D1, ten 20-mg pellets were available only in one of the four holes in the board. For D2, ten 20-mg pellets were located in the opposite symmetrical hole. The environmental spatial cues remained at the same place for D1 and D2. Within each group, the floors used for the first and second discrimination (D1 and D2) were counterbalanced at the acquisition phase from one mouse to the other. A minimal amount of eight pellets should be eaten per mouse at either D1 or D2 during the acquisition phase.
During memory testing, D1 and D2 discriminations were performed in independent groups of mice, being replaced either on the floor of D1 or of D2. The food-deprived mice were replaced either on the floor of D1 or on the floor of D2. In each case, mice were allowed to explore the apparatus freely and performance was assessed by measuring the exploration for each hole for 6 min without any pellets in the apparatus. During the procedure, photocells allowed measurement of the number of head dips in each hole. Different parameters were further calculated: % of correct responses (head-dips into the hole previously baited on the same floor context), % of interfering responses (head-dips into the hole previously baited on the other floor context), and % of errors (head-dips into the two holes never previously baited).

[2] = tested on: aged mice (18–19 months old); assay: Sequential/spontaneous alternation (SA) working memory task in T-maze; assay type: in vivo, mouse; conditions: donepezil 0.1 mg/kg p.o. alone, ITI 90 s, n = 12
Method: as §1
The spontaneous alternation (SA) task was performed in independent groups of mice as regards to the CSD and radial maze tasks. The SA task allows investigation of aged-induced working memory impairments (Vandesquille et al. [2011]). In this task, mice are submitted to a series of successive choices in a T-maze. To alternate from trial to trial, animals have to remember at each choice (except the first one) only the previous trial and to reset the interfering information from trial to trial over a series. This resetting mechanism is a main aspect of working memory (Aggleton et al. [1986]; Béracochéa and Jaffard, [1987]; Kesner [2005]).
Behavioral tests were conducted in a gray Plexiglas T-maze. Stem and arms are 35 cm long, 15 cm wide, and 10 cm high. The starting box (10 cm × 12 cm) and each goal arm are separated from the central alley by a vertical sliding door, with opening and closing monitored by a computer. Photoelectric cells allow recording of both the choice of the goal arm (left or right) and the latency (in seconds) that elapsed between the opening of the starting box and the closing of the goal box. The T-maze is located at the center of a room with various allocentric cues (white or black or striped card boards) located on the wall 1 m above the apparatus.
Animals were not food deprived, and no food reinforcement was used. Animals were first submitted to a habituation phase consisting of two free exploration sessions of 10 min each, over two consecutive days (one session per day) in the apparatus with all doors opened. At the end of the habituation phase, all animals were submitted to a training phase, involving a series of seven successive trials separated by a 30-s intertrial interval (ITI). The training phase was aimed at familiarizing the animals with the opening and closing of the doors.
For the training session, animals were submitted to a sequence of seven successive identical trials. At the beginning of a trial, mice were placed in the starting box and after a confinement period (30 s, predefined ITI), the door to the stem was opened. When the mouse entered one of the goal arms, the door was closed and the chosen arm was recorded. After a 30-s confinement period in the chosen arm, the mouse was gently returned to the starting box for a second trial, identical to the first one. To avoid olfactory cues in the apparatus, visible traces of urine were removed and the general procedure was implemented as in the training phase, except that the ITI was extended to 90 s and animals were submitted to a series of […] successive trials. […] Moreover, an 8th trial was added to the series which was separated from the 7th one by a 5-s ITI. […] The alternation score (in percentage) was used as an index of memory performance. An alternation is defined as a visit in a given arm followed by a visit into the other arm. The successive sequence of visits for the seven first trials determines the level of alternation. A percentage of alternation was calculated: number of alternations performed/number maximal of alternation. This percentage is calculated for each mouse.
For the sequential alternation task, mean and standard errors of the mean (SEM) were calculated for each group of treatment. In addition to % alternation drawn over the seven trials of the series, behavioral performances were also expressed in percentage of alternation drawn from blocks of two consecutive trials (block 1: trials 2 + 3; block 2: trials 4 + 5; block 3: trials 6 + 7). The analyses per trial blocks allowed evaluation of proactive interference over the series (Vandesquille et al. [2011], [2013]). Statistical analyses were performed using the Statview 5.0 software. […]

[3] = tested on: aged mice (22–24 months old); assay: Radial maze working memory task; assay type: in vivo, mouse; conditions: donepezil 0.3 mg/kg s.c.; aged mice
Method: In the radial arm maze task, treatments were administered subcutaneously (s.c.) once a day 60 min prior to testing from the 2 days of habituation to the 12 days of memory testing.
The radial maze (Imetronic system, Pessac, France) was fully automated and enabled by video-tracking automatic testing and recording. Briefly, each mouse was separately assigned to six adjacent arms which were grouped into three pairs (A, B, C). These three pairs were presented repeatedly among the successive trials of each testing session. The location of the food reward varied in each pair according to an alternation rule among successive trials. Namely, among the two arms opened in a specific trial, the food was inserted in the arm which was not visited in the previous trial within the same pair. The mouse must therefore remember which of the two arms was visited in a specific trial until next presentation of the same pair, and so on in order to alternate its choice among successive presentations of any pair. At the beginning of each daily session, the mouse was placed in the central platform of the radial maze with all arms closed. One pair of arms only was opened at the beginning of each trial, and the mouse was required to visit one arm. The door of the non-chosen arm was closed as soon as the mouse reached the end of the chosen arm. The mouse was allowed to run back to the central platform of his own accord, and then, the door of the chosen arm was closed. The mouse remained in the central platform until the following trial (intertrial interval 10 s). Since three pairs were concurrently used, three specific arm visits must be kept in memory by the mouse until their utilization by using short-term working memory. After 2 days of free exploration in the maze (habituation), mice were submitted to 12 consecutive testing sessions: one session of 23 trials (3 “acquisition-only trials,” one by pair, and 20 “acquisition and test trials”) per day, i.e., a total of 276 trials (240 test trials).
Each session consisted of alternate presentations of pairs A, B, and C. The first three trials with each pair were acquisition trials (both arms rewarded). Each of the following trials was at the same time an acquisition trial (for the following trial with the same pair) and a test trial (for the arm visit made during the preceding trial with the same pair); the rewarded arm was the one that has not been visited on the preceding trial with the same pair. Memory demand varied across successive trials according to the retention interval RI (i.e., the number of intervening trials with other pairs between two successive presentations of the same pair). The retention interval for one specific arm visit (e.g., within pair A) depends on the number of concurring trials (i.e., with pairs B and C) occurring till next trial with the same pair (A). Indeed, such a variable amount of interposed trials proportionally increases the delay between acquisition and test and may also generate retroactive interference. There are five levels of retention interval: from 0, corresponding to “no interposed pair,” to 4, corresponding to a sequence of four interposed trials between n-1 and n trials.
During habituation, the time needed for visiting all six arms per session day was measured. During memory testing, memory performance was evaluated according to the percentage of correct alternation responses between successive trials with the same pair in three different manners.

mice = assay: Primary observation (Irwin) test; conditions: donepezil alone
Text: Male Rj: C57BL/6J mice (Elevage Janvier, 53940 Le Genest-Saint-Isle, France), 23–27 g body weight range, were stabilized for at least 5 days after delivery in macrolon cages in groups of 10 (housing period) (25 × 19 × 13 cm) and then of 4 (starting the day before the test and during the test) in macrolon cages (25 × 19 × 13 or 32 × 13 × 14 cm) on wood litter with free access to food and water.
Between one and three treated groups were compared with the same control at any one time. […] In order to keep the same conditions, all the mice receiving a single treatment also received another administration with vehicle.
Behavioral modifications, physiological and neurotoxicity symptoms, and rectal temperature were recorded according to a standardized observation grid derived from that of Irwin. The grid contains the following items: death*, convulsions*, tremor*, Straub tail*, altered activity, excitation, jumping*, abnormal gait* (rolling, tip-toe), motor incoordination*, altered muscle tone, loss of grasping, akinesia, catalepsy, loss of traction, writhing*, piloerection*, stereotypies* (sniffing, chewing, head movements), head-twitches*, scratching*, altered respiration*, aggression*, altered fear, altered reactivity to touch, ptosis, exophthalmia, loss of righting reflex, loss of corneal reflex, analgesia, defecation/diarrhea, salivation, lacrimation, and rectal temperature (hypothermia/hyperthermia).

[4] = tested on: aged mice (22–24 months old); set-up: method as in Marighetto et al., [2008b]; conditions: ref Marighetto et al., [2008b], cited from earlier work

For `COc1cc2c(cc1OC)C(=O)C(CC1CCN(Cc3ccccc3)CC1)C2` (centres unmarked) [Donepezil, reference compound], the “Total number of explorations and % exploration of the baited hole, acquisition phase” value ([1]; Experiment 1 (study A and B), compounds alone, p> 0.10 in all analyses) was “No significant between-groups difference”, the “Memory performance in the second discrimination (D2)” value ([1]; Experiment 1, S 47445 at all doses, donepezil at the active doses, versus middle-aged vehicle, data not shown) was “did not alter memory performance” and the “Total number of head-dips, test phase” value ([1]; Experiment 1, versus vehicles (p > 0.10 in all comparisons), data not shown) was “no significant effect”. The “SCM score of the second discrimination (D2), dose effect at pooled levels of the other drug” value ([1]; Supplemental data 2, S 47445 0.03–0.3 mg/kg p.o. (p=0.951), Donepezil 0.03 and 0.1 mg/kg (p=0.074)) was “no significant effect”, the “Post hoc analysis of donepezil effect on SCM score for all S 47445 levels (Dunnett, versus vehicle group)” value ([1]; donepezil 0.03 mg/kg) was “NS (p = 0.079) (NS p > 0.050)” and the “Post hoc analysis of donepezil effect on SCM score for all S 47445 levels (Dunnett, versus vehicle group)” value ([1]; donepezil 0.1 mg/kg) was “*** (***p ≤ 0.001)”. The “Alternation score, 3rd block of trials (trials 6 + 7)” value [2] was 45.833 ± 4.167 n = 12%, the “Alternation score, seven first trials of the series” value [2] was “alternated significantly above vehicles” and the “Performance as a function of retention interval (RI 0–4) versus chance level” value [3] was “remained significantly above chance up to RI = 3”. The “Symptoms observed in the Irwin test” value (mice; 3 mg/kg p.o.) was “Tremor, hypothermia, and decreases in activity, abdominal muscle tone, and reactivity to touch”, the “Additional symptoms observed in the Irwin test” value (mice; 10 mg/kg p.o.) was “Straub tail and abnormal gait (rolling)” and the “Observable effects in the Irwin test” value (mice; dose range 3–10 mg/kg p.o., mice) was “clear and dose-dependent sedative/myorelaxant effects”. For the same compound, the “Activity in radial maze working memory task” value ([4]; donepezil 0.3 mg/kg i.p.) was “limited to the organizational component of the task” and the “Active dose in the same working memory task” value ([4]; donepezil) was 0.3 mg/kg but not of 1 mg/kg was found to be active.
